This is an account of results in patent publication US9107415B2, “2-(substituted-phenyl)-cyclopentane-1,3-dione compounds, and derivatives thereof” (Syngenta Limited, priority 2011, dated 2015).

Common to all, as to type: in vivo
The test system of assay [1] is Alopecurus myosuroides (ALOMY). Nature of the assay: Biological Example 1 glasshouse screen, post-emergence herbicidal activity. As to conditions: 312 h, application rate 250 g/ha, evaluated after 13 days, read-out: ALOMY percentage phytotoxicity. The method in brief:
(§1)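 Thirteen days after spraying, each species was given a visual phytotoxicity score (100% = total damage; 0% = none). Application was made one day post-sowing for pre-emergence and after 8 days' cultivation for post-emergence; conditions 24/16°C, 14 h photoperiod, 65% humidity.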

Assay [2] has as its system Echinochloa crus-galli (ECHCG). Described as above. The conditions noted are these: 312 h, application rate 250 g/ha, evaluated after 13 days, read-out: ECHCG percentage phytotoxicity. The procedure, abridged:
as §1

The subject of assay [3] is Alopecurus myosuroides (ALOMY). In words: Biological Example 1 glasshouse screen, pre-emergence herbicidal activity. As to conditions: 312 h, application rate 250 g/ha, evaluated after 13 days, read-out: ALOMY percentage phytotoxicity. The procedure, abridged: as §1
The test system of assay [4] is Echinochloa crus-galli (ECHCG). The assay is described as above. The conditions noted are these: 312 h, application rate 250 g/ha, evaluated after 13 days, read-out: ECHCG percentage phytotoxicity. The method in brief:
as §1

The test system of assay [5] is Ipomoea hederacea (IPOHE). Nature of the assay: Biological Example 1 glasshouse screen, post-emergence herbicidal activity. As to conditions: application rate 250 g/ha, evaluated after 13 days. As to the method: (§2) Seeds of a variety of test species were sown in standard soil in pots. After cultivation for one day (pre-emergence) or after 8 days cultivation (post-emergence) under controlled conditions in a glasshouse (at 24/16°C., day/night; 14 hours light; 65% humidity), the plants were sprayed with an aqueous spray solution derived from the formulation of the “technical”(i.e. unformulated) active ingredient in acetone/water (50:50) solution containing 0.5% Tween 20 (polyoxyethylene sorbitan monolaurate, CAS Registry Number 9005-64-5). The test plants were then grown in a glasshouse under controlled conditions in a glasshouse (at 24/16°C., day/night; 14 hours light; 65% humidity) and watered twice daily. After 13 days for pre- or post-emergence, the test was evaluated visually, and an assessed percentage phytotoxicity score given for each herbicidal application on each plant/weed species (with 100%=total damage to plant; 0%=no damage to plant).
(§3) Test plants: Alopecurus myosuroides (ALOMY), Setaria faberi (SETFA), Echinochloa crus-galli (ECHCG), Solanum nigrum (SOLNI), Amaranthus retroflexus (AMARE) and Ipomoea hederacea (IPOHE). ALOMY, SETFA and ECHCG are grassy monocotyledonous weeds. SOLNI, AMARE and IPOHE are dicotyledonous (broadleaved) weeds.

Assay [6] concerns Solanum nigrum (SOLNI). The description is as above. The conditions noted are these: application rate 250 g/ha, evaluated after 13 days. As to the method: as §2, §3
The subject of assay [7] is Setaria faberi (SETFA). The description is as above. The conditions noted are these: application rate 250 g/ha, evaluated after 13 days. As to the method: as §2, §3
The test system of assay [8] is Amaranthus retroflexus (AMARE). The assay is described as above. The conditions noted are these: application rate 250 g/ha, evaluated after 13 days. How it is done:
as §2, §3

The subject of assay [9] is Ipomoea hederacea (IPOHE). In words: Biological Example 1 glasshouse screen, pre-emergence herbicidal activity. The conditions noted are these: application rate 250 g/ha, evaluated after 13 days. How it is done:
as §2, §3

Assay [10] concerns Solanum nigrum (SOLNI). The description is as above. The conditions noted are these: application rate 250 g/ha, evaluated after 13 days. As to the method:
as §2, §3

The test system of assay [11] is Setaria faberi (SETFA). Described as above. As to conditions: application rate 250 g/ha, evaluated after 13 days. As to the method: as §2, §3
The subject of assay [12] is Amaranthus retroflexus (AMARE). Described as above. The conditions noted are these: application rate 250 g/ha, evaluated after 13 days. How it is done: as §2, §3
Assay [13] concerns Alopecurus myosuroides (ALOMY). Nature of the assay: Biological Example 2 post-emergence herbicidal activity (comparative data). The conditions noted are these: 312 h, read-out: ALOMY percentage phytotoxicity; for pest or weed control at 15.625 g/ha: 15.625 g/ha application rate; for pest or weed control at 62.5 g/ha: 62.5 g/ha application rate. How it is done: as §2
(§4) Comparative herbicidal data are given for certain exemplified compounds with 4-(prop-1-ynyl)-2,6-dimethylphenyl or 4-(chloroethynyl)-2,6-dimethylphenyl headgroups, compared to the corresponding comparative compounds with 4-ethynyl-2,6-dimethylphenyl headgroups, as follows.
(§5) Except where specified otherwise, the glasshouse screen for herbicidal activity is substantially the same as that presented in Biological Example 1 hereinabove. The weed abbreviations are as defined in Biological Example 1.

Assay [14] relates to Echinochloa crus-galli (ECHCG). The description is as above. As to conditions: 312 h, read-out: ECHCG percentage phytotoxicity; for pest or weed control at 15.625 g/ha: 15.625 g/ha application rate; for pest or weed control at 62.5 g/ha: 62.5 g/ha application rate. As to the method: as §2, §4, §5
The test system of assay [15] is Setaria faberi (SETFA). The assay is described as above. How it is done:
as §2, §4, §5

Assay [16] concerns Triticum aestivum, wheat (TRZAW). Nature of the assay: Biological Example 3 glasshouse screen, post-emergence, phytotoxicity on wheat. As to conditions: 360 h, 15 DAA, no safener, read-out: TRZAW percentage phytotoxicity. The procedure, abridged: (§6)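 Seeds were sown in standard soil and cultivated for 12 days under controlled glasshouse conditions. Plants were then sprayed with the unformulated compound in acetone/IF50 plus 0.2% v/v X-77 in aqueous solution, without safener, and percentage damage was assessed visually 15 days later.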

The test system of assay [17] is Lolium perenne, perennial ryegrass (LOLPE). Nature of the assay: Biological Example 3 glasshouse screen, post-emergence herbicidal activity. The conditions noted are these: 360 h, 15 DAA, no safener, read-out: LOLPE percentage phytotoxicity. The method in brief:
as §6

The subject of assay [18] is Echinochloa crus galli, barnyardgrass (ECHCG). The assay is described as above. The conditions noted are these: 360 h, 15 DAA, no safener, read-out: ECHCG percentage phytotoxicity. The method in brief:
as §6

In assay [19] the test system is Alopecurus myosuroides, blackgrass (ALOMY). The description is as above. As to conditions: 360 h, 15 DAA, no safener, read-out: ALOMY percentage phytotoxicity. The procedure, abridged: as §6
Assay [20] relates to Avena fatua, wild oats (AVEFA). The description is as above. As to conditions: 360 h, 15 DAA, no safener, read-out: AVEFA percentage phytotoxicity. The procedure, abridged: as §6

For `Cc1cc(C#CCl)cc(C)c1C1=C(O)CC(Cc2ccccn2)C1=O` (racemic) [Compound A-3, rac-2-(4-Chloroethynyl-2,6-dimethylphenyl)-4-(pyridin-2-ylmethyl)cyclopentane-1,3-dione], the pest or weed control at 250 g/ha in assay [1] was 90%; in assay [2] it was 100%; in [3] it was 90%; in assay [4], 100%. The IPOHE percentage phytotoxicity was 30% in [5] and 70% in assay [9]. Also, the figures for the SOLNI percentage phytotoxicity in [6] and in assay [10] were 70% and 90%, respectively. Also, the SEFTA percentage phytotoxicity in assay [7] and in assay [11] was 100% in each case. Besides, the AMARE percentage phytotoxicity was 60% in assay [8] and 90% in [12]. Besides, the pest or weed control at 15.625 g/ha was 90% in assay [13] and 100% in assay [14]. The figures for the pest or weed control at 62.5 g/ha in [13] and in assay [14] were 90% and 100%, respectively. Further, the SETFA percentage phytotoxicity is 80% in assay [15] (15.625 g/ha application rate) and 90% in assay [15] (62.5 g/ha application rate).
Consider `CC#Cc1cc(C)c(C2C(=O)C3C(C2=O)[C@H]2CC[C@@H]3O2)c(C)c1` (mixture of isomers) [Compound A-18, (1RS,2SR,6RS,7SR)-4-(2,6-dimethyl-4-prop-1-ynylphenyl)-10-oxatricyclo[5.2.1.0^2,6]decane-3,5-dione], for which the pest or weed control at 250 g/ha in assay [1], in assay [2], in assay [3] and in assay [4] was 100% throughout. The pest or weed control at 8 g/ha in assay [16] (application rate 8 g/ha) was determined as 40%; in [17] (application rate 8 g/ha), 80%; in [18] (application rate 8 g/ha), 80%; in [19] (application rate 8 g/ha), 70%; in assay [20] (application rate 8 g/ha) it was 30%. Moreover, the IPOHE percentage phytotoxicity in [5] and in assay [9] was 80% throughout. The SOLNI percentage phytotoxicity in assay [6] and in assay [10] was 80% each time. The SEFTA percentage phytotoxicity in assay [7] and in assay [11] was 100% throughout. Besides, the results for the AMARE percentage phytotoxicity in assay [8] and in [12] were 30% and 100%, respectively. Moreover, the pest or weed control at 15.625 g/ha in assay [13] was found to be 90%; in assay [14] it was 100%. The pest or weed control at 62.5 g/ha in assay [13] and in assay [14] was 100% in each case. The SETFA percentage phytotoxicity in [15] (15.625 g/ha application rate) was determined as 70%; in assay [15] (62.5 g/ha application rate) it was 90%.
On to `CC#Cc1cc(C)c(C2=C(O)CCC2=O)c(C)c1` [Compound A-1, 2-(2,6-Dimethyl-4-prop-1-ynylphenyl)cyclopentane-1,3-dione], for which the pest or weed control at 250 g/ha in [1] was 90%; in assay [2], 100%; in assay [3], 100%; in assay [4], 100%. Moreover, the pest or weed control at 125 g/ha was 40% in assay [16] (application rate 125 g/ha); 50% in [17] (application rate 125 g/ha); 80% in assay [18] (application rate 125 g/ha); 70% in [19] (application rate 125 g/ha); 0% in [20] (application rate 125 g/ha). Also, the figures for the IPOHE percentage phytotoxicity in assay [5] and in assay [9] were 30% and 0%, respectively. For the same compound, the figures for the SOLNI percentage phytotoxicity in [6] and in assay [10] were 10% and 0%, respectively. The SEFTA percentage phytotoxicity in assay [7] came to 70%; in assay [11], 80%. Moreover, the AMARE percentage phytotoxicity in assay [8] and in assay [12] was 0% in each case. Further, the values for the pest or weed control at 15.625 g/ha in [13] and in assay [14] were 20% and 70%, respectively. For the same compound, the pest or weed control at 62.5 g/ha stood at 80% in assay [13] and 100% in assay [14]. Also, the SETFA percentage phytotoxicity in assay [15] (15.625 g/ha application rate) amounted to 40%; in [15] (62.5 g/ha application rate) it was 60%.
As to `Cc1cc(C#CCl)cc(C)c1C1C(=O)CCC1=O` [Compound A-16], the pest or weed control at 250 g/ha in assay [1] is 50%; in [2], 100%; in assay [3], 50%; in assay [4], 100%. Moreover, the IPOHE percentage phytotoxicity in [5] was found to be 10%; in assay [9] it was 0%. The SOLNI percentage phytotoxicity in assay [6] was found to be 20%; in assay [10], 10%. Further, the figures for the SEFTA percentage phytotoxicity in [7] and in [11] were 70% and 90%, respectively. Further, the AMARE percentage phytotoxicity in assay [8] turned out to be 10%; in [12], 40%. Further, the pest or weed control at 15.625 g/ha in assay [13] was determined as 10%; in assay [14], 70%. In addition, the values for the pest or weed control at 62.5 g/ha in assay [13] and in [14] were 10% and 90%, respectively. In addition, the results for the SETFA percentage phytotoxicity in assay [15] (15.625 g/ha application rate) and in assay [15] (62.5 g/ha application rate) were 0% and 80%, respectively.
As for `Cc1cc(C#CCl)cc(C)c1C1C(=O)C2C(C1=O)[C@H]1CC[C@@H]2O1` (stereo partly shown) [Compound A-17], the pest or weed control at 250 g/ha came out at 80% in [1], 100% in [2], 80% in assay [3] and 100% in assay [4]. Moreover, the IPOHE percentage phytotoxicity came to 70% in [5] and 80% in assay [9]. Also, the results for the SOLNI percentage phytotoxicity in [6] and in assay [10] were 70% and 80%, respectively. The SEFTA percentage phytotoxicity stood at 90% in assay [7] and 100% in [11]. Moreover, the AMARE percentage phytotoxicity in assay [8] came to 10%; in assay [12], 100%. Moreover, the pest or weed control at 15.625 g/ha in assay [13] amounted to 60%; in [14] it was 100%. Also, the pest or weed control at 62.5 g/ha was determined as 70% in assay [13] and 100% in assay [14]. Besides, the SETFA percentage phytotoxicity in assay [15] (15.625 g/ha application rate) and in assay [15] (62.5 g/ha application rate) was 80% in each case.
